Literature values as cited in patent US20060111347A1, “Substituted sulfones and methods of use” (AMGEN INC., priority 2004, published 2006).
No end group written: not given here.

Details: degraded by peptidases

RPPGFSPFR [BK, Bradykinin]
half-life of BK in plasma: approximately 17 seconds
